{"source": "patent US12616666B2", "about": "“Coenzyme Q10 formulations in the treatment and prevention of epidermolysis bullosa” (BPGbio, Inc., priority 2017, dated 2026)", "key": {"[1]": {"system": "melanoma (SK-MEL-28) cell line", "test": "Cell proliferation with increasing Coenzyme Q10 concentration", "format": "cell-based", "settings": "SK-MEL-28, increasing concentration (FIG. 1)", "from_the_text": "(§1) When applied topically to melanoma tumors in nude mice, a 1.0% CoQ10 formulation inhibited growth and angiogenesis. The mechanism involves the shifting of the cellular bioenergetics from cytoplasmic glycolysis towards mitochondrial oxidative phosphorylation (AACR 2011). The shift in cellular metabolic pathways in cancer including SCC and melanoma results in the recapitulation of the p53 regulated apoptotic potential by re-establishing the balance of pro-apoptic Bcl-2/Bax ratios in a manner conducive for cell death."}, "[2]": {"system": "normal human keratinocytes", "test": "Cell proliferation with increasing Coenzyme Q10 concentration", "format": "cell-based", "settings": "increasing concentration (FIG. 1)", "from_the_text": "as §1"}, "[3]": {"system": "squamous cell carcinoma (SCC-25) cell line", "test": "Cell proliferation with increasing Coenzyme Q10 concentration", "format": "cell-based", "settings": "SCC-25, increasing concentration (FIG. 1)", "from_the_text": "as §1"}, "IL6": {"system": "IL6", "test": "Upregulation of inflammatory cytokines after topical CoQ10", "settings": "topical application"}, "[4]": {"test": "Heat stability of CoQ10 solubilized in Polysorbate 80", "format": "physicochemical", "settings": "25-60% CoQ10 solubilized in Polysorbate 80, heated for several hours at 55° C.", "method": "Coenzyme Q10 […] is a deep yellow-orange powder and is very hydrophobic with a melting point of approximately 48 degrees centigrade. The active ingredient, CoQ10 […] Cream, ubidecarenone, USP may be adversely affected by heat and light, according to the literature. […] Heating the mixture to 50-55° C. (i.e., 2-7° C. above the melting point of CoQ10) greatly speeds the solubilization of CoQ10. To manufacture the topical CoQ10 cream, two CoQ10 concentrate phases (CoQ10/Polysorbate 80 and water-lecithin-glycol-phenoxyethanol) were each heated separately to 50-55° C. with the water phase added to the solubilized CoQ10 and were mixed with high shear homogenization to form a microemulsion concentrate of CoQ10. The CoQ10 concentrate was then added to a water-in-oil (W/O) cream emulsion base to produce the final CoQ10 cream. The final concentration of CoQ10 in the cream was 3.0%. The CoQ10 3% cream is further described in International Publication No. WO2008/116135, the entire content of which is incorporated by reference in its entirety herein."}, "SCC cell line (SCC-25)": {"system": "SCC cell line (SCC-25)", "test": "Proteomic analysis of SCC cell line", "format": "cell-based", "settings": "100 uM CoQ10, SCC-25", "method": "Next, a proteomic analysis of an in-vitro model of squamous cell carcinoma, SCC cell line (SCC-25), was undertaken to delineate the underlying mechanistic regulating effect of the CoQ10 compositions of the invention. Table 1, shown above and reproduced below, lists the proteins identified to have a differential response to 100 uM CoQ10 treatment in SCC cells at 6 and 24 hours."}, "[5]": {"system": "Human aortic smooth muscle cells (HASMC)", "test": "Western Blot of ACL expression in normal control cells", "format": "cell-based", "settings": "50 μM or 100 μM", "method": "(§2) FIG. 3A and FIG. 3B show the effect of Coenzyme Q10 treatment (50 μM or 100 μM) on expression of ATP Citrate lyase (ACL) in SK-MEL-28 melanoma cells. Human aortic smooth muscle cells (HASMC) were used as a control."}, "SK-MEL-28 melanoma cells": {"system": "SK-MEL-28 melanoma cells", "test": "Western Blot of protein expression", "format": "cell-based", "method": "FIG. 2A and FIG. 2B show the expression of isocitrate dehydrogenase (IDH-1) in SK-MEL-28 melanoma cells treated with increasing concentration of Coenzyme Q10 (50 μM or 100 μM).\nas §2\nFIG. 4A and FIG. 4B show the effect of Coenzyme Q10 on expression of p53, pl4ARF and MDM2 in SK-MEL-28 melanoma cells.\nBcl-2, Bax and Caspase 3 are pro- and anti-apoptotic markers regulating cell death pathways. A beta-actin loading control was used."}, "adult fibroblasts": {"system": "adult fibroblasts", "test": "Cell proliferation with increasing Coenzyme Q10 concentration", "format": "cell-based, human", "settings": "normal fibroblasts, increasing concentration (FIG. 1)", "from_the_text": "as §1"}, "SCC cells": {"system": "SCC cells", "test": "Apoptosis Array gene regulation", "format": "cell-based", "settings": "100 uM Q10, SCC cells", "method": "Table 3, shown above and reproduced below, lists the genes in SCC cells that are regulated by 100 uM Q10 treatment when analyzed by the Apoptosis Array."}, "[6]": {"settings": "direction: Decrease, at 6 and 24 hr"}, "[7]": {"settings": "direction: Decrease, at 24 hr only"}, "[8]": {"settings": "direction: Increase, at 6 and 24 hr"}, "[9]": {"settings": "SK-MEL-28, 50 μM or 100 μM for 12 or 24 hours"}}}
{"smiles": "COC1=C(OC)C(=O)C(C/C=C(\\C)CC/C=C(\\C)CC/C=C(\\C)CC/C=C(\\C)CC/C=C(\\C)CC/C=C(\\C)CC/C=C(\\C)CC/C=C(\\C)CC/C=C(\\C)CCC=C(C)C)=C(C)C1=O", "note": "[CoQ10, Coenzyme Q10]", "values": [{"measurement": "cell proliferation rate", "setting": "[1]", "result": "dose dependent decrease"}, {"measurement": "cell proliferation rate", "setting": "[1]; listed as Coenzyme Q10", "result": "concentration dependent decrease"}, {"measurement": "cell proliferation rate", "setting": "[2]", "result": "no effect"}, {"measurement": "cell proliferation rate", "setting": "[3]", "result": "dose dependent decrease"}, {"measurement": "cell proliferation rate", "setting": "[3]; listed as Coenzyme Q10", "result": "concentration dependent decrease"}, {"measurement": "upregulation of inflammatory cytokines (IL6)", "setting": "IL6", "result": "block the upregulation"}, {"measurement": "breakdown of CoQ10 on heating", "setting": "[4]", "result": "no measurable breakdown"}, {"measurement": "NM23 protein (NME1) Response", "setting": "SCC cell line (SCC-25); at 24 hr", "result": "decrease at 24 hr"}, {"measurement": "Keratin 1 (KRT1) Response (fold change)", "setting": "SCC cell line (SCC-25); [6]", "result": "Decrease (2.3) at 6 and 24 hr fold change"}, {"measurement": "Transaldolase 1 (TALDO1) Response (fold change)", "setting": "SCC cell line (SCC-25); [6]", "result": "Decrease (1.5) at 6 and 24 hr fold change"}, {"measurement": "Rho GDP dissociation inhibitor (GDI) alpha (ARHGDIA) Response (fold change)", "setting": "SCC cell line (SCC-25); direction: Decrease, at 6 hr only", "result": "Decrease (1.5) at 6 hr only fold change"}, {"measurement": "Proteasome activator subunit 3 (PSME3) Response (fold change)", "setting": "SCC cell line (SCC-25); [7]", "result": "Decrease (1.3) at 24 hr only fold change"}, {"measurement": "Protessome Beta 7 (PSMB7) Response (fold change)", "setting": "SCC cell line (SCC-25); [7]", "result": "Decrease (1.6) at 24 hr only fold change"}, {"measurement": "Heat shock 27 kDa protein 1 (HSPB1) Response (fold change)", "setting": "SCC cell line (SCC-25); [8]", "result": "Increase (−1.9) at 6 and 24 hr fold change"}, {"measurement": "Keratin 13 (KRT13) Response (fold change)", "setting": "SCC cell line (SCC-25); [8]", "result": "Increase (−1.5) at 6 and 24 hr fold change"}, {"measurement": "Keratin 14 (KRT14) Response (fold change)", "setting": "SCC cell line (SCC-25); [8]", "result": "Increase (−1.6) at 6 and 24 hr fold change"}, {"measurement": "NM23 protein (NME1) Response (fold change)", "setting": "SCC cell line (SCC-25); printed direction: increase, at 6 hr", "result": "increase (−1.2) at 6 hr, fold change"}, {"measurement": "expression of ATP Citrate lyase (ACL)", "setting": "[5]", "result": "not observed"}, {"measurement": "expression of MDM2", "setting": "SK-MEL-28 melanoma cells; SK-MEL-28 (FIG. 4)", "result": "decrease"}, {"measurement": "expression of ATP Citrate lyase (ACL)", "setting": "SK-MEL-28 melanoma cells; SK-MEL-28, 50 μM or 100 μM", "result": "concentration dependent decrease"}, {"measurement": "expression of isocitrate dehydrogenase (IDH-1)", "setting": "SK-MEL-28 melanoma cells; SK-MEL-28, 50 μM or 100 μM", "result": "concentration dependent increase"}, {"measurement": "expression of anti-apoptotic bcl-2 protein", "setting": "SK-MEL-28 melanoma cells; [9]", "result": "concentration dependent decrease"}, {"measurement": "expression of caspase 3", "setting": "SK-MEL-28 melanoma cells; [9]", "result": "progressive dose-dependent increase"}, {"measurement": "expression of pro-apoptotic bax", "setting": "SK-MEL-28 melanoma cells; [9]", "result": "concentration dependent increase"}, {"measurement": "cell proliferation rate", "setting": "adult fibroblasts", "result": "no effect"}, {"measurement": "BCL2L1 gene Regulation", "setting": "SCC cells; 6 hours", "result": "Down regulated at 6 hours and"}, {"measurement": "CARD6 gene Regulation", "setting": "SCC cells; 6 hours", "result": "Down regulated at 6 hours."}, {"measurement": "AKT1 gene Regulation", "setting": "SCC cells; 24 hours", "result": "then up regulated at 24 hours."}, {"measurement": "BAG4 gene Regulation", "setting": "SCC cells; 24 hours", "result": "Up regulated at 24 hours."}, {"measurement": "BAX gene Regulation", "setting": "SCC cells; 24 hours", "result": "Up regulated at 24 hours."}, {"measurement": "BCL2L1 gene Regulation", "setting": "SCC cells; 24 hours", "result": "then up regulated at 24 hours."}, {"measurement": "BNIP3 gene Regulation", "setting": "SCC cells; 24 hours", "result": "Down regulated at 24 hours."}, {"measurement": "CASP6 gene Regulation", "setting": "SCC cells; 24 hours", "result": "Up regulated at 24 hours."}, {"measurement": "CASP7 gene Regulation", "setting": "SCC cells; 24 hours", "result": "Up regulated at 24 hours."}, {"measurement": "GADD45A gene Regulation", "setting": "SCC cells; 24 hours", "result": "Up regulated at 24 hours."}, {"measurement": "TP53 gene Regulation", "setting": "SCC cells; 24 hours", "result": "Up regulated at 24 hours."}, {"measurement": "TP73 gene Regulation", "setting": "SCC cells; 24 hours", "result": "then up regulated at 24 hours."}]}
